Patent publication US4014909A, “Esters of 21-thiol steroids” (priority 1974, dated 1977)
Like-named read-outs stand apart in the source and are kept apart here.

Experiments:
[1] = cited from earlier work; for Adreno-corticoid activity / Diuretic activity: U.S. Pat. No. 2,814,632
granuloma = assay: Anti-proliferative (anti-granulomatous) activity, cotton pellet granuloma; assay type: in vivo, rat (Wistar, male); details: rat, cotton pellet impregnated with product, 6 days
Text: The experimental local anti-inflammatory activity of the compounds presented was estimated in rats by their anti-proliferative (anti-granulomatous) action, and for certain of these, by their anti-arthritic activity and their antiexudative activity.
The anti-proliferative (anti-granulomatous) activity has been brought into evidence by means of a test, the principle of which is as follows.
The introduction of a foreign body into an organism produces a set of inflammatory reactions which results, in the chromic stage, in the formation of a defence granuloma around the foreign body. The proliferation of this granuloma is eliminated or attenuated by anti-inflammatory agents.
The technique employed is very similar to that described by Winter and Porter (J. Am. Pharm. Ass. 46/9. 515) 1957 with rats.
Homogeneous groups of 6 male adult rats of the Wistar Strain were used, distributed at random and having weights comprised between 180 and 200 grams.
The implants or pellets were prepared from rolls of dental cotton; the weight of the pellets was between 35 and 40 mg.
The products to be tested were dissolved in dimethylsulphoxide (DMSO) and the solutions obtained, deposited on the pellets at a volume of 0.2 ml per pellet. The DMSO was then evaporated under high vacuum at ambient temperature, the complete elimination of the solvent being checked by weighing the pellets. "Reference" pellets, soaked with the solvent alone, were treated in the same manner.
Immediately before their introduction, the pellets were soaked with an antibiotic solution (0.1 ml. of a solution of penicillin G and streptomycin containing 200,000 of penicillin G and 0.1 gram of streptomycin sulphate per cc.).
Each animal received two pellets in the sub-cutaneous dorsal tissue on each side of the spinal column, at the costo-lumbar angle, under light anaesthesia with ether. The day of the operation and for three days after, the animals received by sub-cutaneous injection, 0.1 ml. of the antibiotic solution in the caudal region.
Six days after the introduction, the animals were killed by inhalation of chloroform and the granulomae were extracted and weighed, (fresh weight), and then the initial weights of the cotton pellets were subtracted from the total weight.
Certain non-sulphured steroids causing a large increase in protein catabolism which can influence the formation of the granuloma independently of their anti-inflammatory action, the weights of the granulomae were expressed as a percentage of the body weight (technique proposed by G. Dipasquale and A. Meli: J. Pharm. Pharmacol. (1965), 17,367-382) and the anti-proliferative effect of the various compounds as a percentage inhibition with respect to the reference granulomae. The DE50 were calculated by transferring the results on to semi-logarithmic paper.

thymus = assay type: in vivo, rat (Wistar, young male)
Description: The thymolytic effects have been examined by means of a test, the principle of which is as follows:
The repeated administration of a gluco-corticoid having a systemic activity causes an involution of the defence system of the organism, of which two organs belong to the reticulo-endothelial system, the spleen and the thymus, this latter being the most sensitive to this action, especially with young animals. The thymic involution is estimated by weighing.
The various products were injected daily by the oral or the sub-cutaneous route for four days, to young male rats of Wistar-strain, the initial weight of which was between 45 and 55 grams, distributed at random by groups of ten.
The products under study were administered at a volume of 0.2 ml. per animal for both methods, in suspension in:
Carboxy-methyl-cellulose at 5 % for sub-cutaneous injection;
Gum arabic at 5 % for the oral route.
The animals of the reference groups received the same volume of the corresponding vehicle.
Ninety-six hours after the first administration, the animals were killed, the thymus glands being taken and weighed immediately.
(§1) For each animal, the weight of the thymus has been brought to 100 grams of body weight. The thymolytic activity of the products under study was then expressed as a percentage of regression of the thymus with respect to the animals of the reference group and the ED50 of each product tested was estimated by transferring the percentage inhibition obtained for each dose on semi-logarithmic paper.

granuloma / thymus = assay: Ratio of the local anti-inflammatory activity to the thymolytic activity; assay type: in vivo, rat (Wistar); details: for ED50 anti-proliferative activity / ED50 thymolytic activity (sub-cutaneous route): thymolytic activity determined by sub-cutaneous route; for ED50 anti-proliferative activity / ED50 thymolytic activity (oral route): thymolytic activity determined by the oral route
Description: The DE50 were calculated by transferring the results on to semi-logarithmic paper.
as §1
The ratio is indicated in Tables VII, VIII and IX which follow: […]

[2] = oral, total dose administered during four days per rat of about 50 g
[3] = sub-cutaneous, total dose administered during four days per rat of about 50 g

Structure (SMILES)	ED50 anti-proliferative activity (granuloma)	ED50 thymolytic activity, sub-cutaneous route (thymus; rat, in vivo, 5760 min)	ED50 thymolytic activity, oral route (thymus; rat, in vivo, po, 5760 min)	ED50 anti-proliferative activity / ED50 thymolytic activity (sub-cutaneous route) (granuloma / thymus)	ED50 anti-proliferative activity / ED50 thymolytic activity (oral route) (granuloma / thymus)	other results
CCC(=O)SCC(=O)[C@@]1(O)CC[C@H]2[C@@H]3CCC4=CC(=O)C=C[C@]4(C)[C@H]3[C@@H](O)C[C@@]21C [21-thio propionate of prednisolone]	–	–	–	–	–	Adreno-corticoid activity [1]: possessing an adreno-corticoid activity; Diuretic activity [1]: considerable diuretic activity
CC(=O)SCC(=O)[C@@]1(O)[C@H](C)C[C@H]2[C@@H]3CCC4=CC(=O)C=C[C@]4(C)[C@@]3(F)[C@@H](O)C[C@@]21C [21-thio-acetate of dexamethasone]	–	–	–	–	–	Anti-inflammatory action ([1]; French Pat. No. 1187 M): anti-inflammatory product with a local action and a systemic action
CC(=O)SCC(=O)[C@@]1(O)CC[C@H]2[C@@H]3CCC4=CC(=O)CC[C@]4(C)[C@H]3[C@@H](O)C[C@@]21C [21-thio-acetate of hydrocortisone]	–	–	–	–	–	Biological activity ([1]; J. Org. Chem. 26,1233, 1961): free of all interesting biological activity
CC(=O)SCC(=O)[C@@]1(O)CC[C@H]2[C@@H]3CCC4=CC(=O)C=C[C@]4(C)[C@H]3[C@@H](O)C[C@@]21C [21-thio-acetate of prednisolone]	–	–	–	–	–	Adreno-corticoid activity [1]: possessing an adreno-corticoid activity; Diuretic activity [1]: considerable diuretic activity
CC(=O)OCC(=O)[C@@]1(O)[C@H](C)C[C@H]2[C@@H]3CCC4=CC(=O)C=C[C@]4(C)[C@@]3(F)[C@@H](O)C[C@@]21C [Dexamethasone (acetate), Dexamethasone acetate, reference compound]	0.4 mg/pellet	0.009 mg	0.01 mg	40	40	–
C[C@@H]1C[C@H]2[C@@H]3CCC4=CC(=O)C=C[C@]4(C)[C@@]3(F)[C@@H](O)C[C@]2(C)[C@@]1(O)C(=O)CO [Dexamethasone (base), Dexamethasone, reference compound]	1 mg/pellet	10.02 mg	0.013 mg	50	80	–
C[C@]12CCC(=O)C=C1CC[C@@H]1[C@@H]2[C@@H](O)C[C@@]2(C)[C@H]1CC[C@]2(O)C(=O)CO [Hydrocortisone (base), Hydrocortisone, reference compound]	10 mg/pellet	1.8 mg	4 mg	5.5	2.5	–
CC(C)(C)C(=O)SCC(=O)[C@@]1(O)CC[C@H]2[C@@H]3CCC4=CC(=O)C=C[C@]4(C)[C@H]3[C@@H](O)C[C@@]21C [JO 1007, Dihydroxy-11β, 17αThiol 21 Dioxo-3,20 Pregnadiene-1,4 -21 Pivalate]	0,44 mg/pellet	30.4 mg	9.6 mg	0.014	0.046	–
C[C@@H]1C[C@H]2[C@@H]3CCC4=CC(=O)C=C[C@]4(C)[C@@]3(F)[C@@H](O)C[C@]2(C)[C@@]1(O)C(=O)CSC(=O)C(C)(C)C [JO 1008, Dihydroxy-11β, 17α thiol-21 dioxo-3,20 fluoro-9α methyl-16α pregnadiene-1,4-21-pivalate]	1 mg/pellet	0.8 mg	–	1.25	–	–
CCCCCCC(=O)SCC(=O)[C@@]1(O)CC[C@H]2[C@@H]3CCC4=CC(=O)C=C[C@]4(C)[C@H]3[C@@H](O)C[C@@]21C [JO 1009, Dihydroxy-11β, 17αthiol-21 dioxo-3,20 pregnadiene-1,4-21 heptanoate]	0.5 mg/pellet	8 mg	–	0.0625	–	–
CCCCCCC(=O)SCC(=O)[C@@]1(O)[C@H](C)C[C@H]2[C@@H]3CCC4=CC(=O)C=C[C@]4(C)[C@@]3(F)[C@@H](O)C[C@@]21C [JO 1010, Dihydroxy611β, 17α thiol-21 dioxo-3,20 fluoro-9α methyl-16α pregnadiene-1,4-21 heptanoate]	0,5 mg/pellet	0.4 mg	–	1.25	–	–
C[C@@H]1C[C@H]2[C@@H]3CCC4=CC(=O)C=C[C@]4(C)[C@@]3(F)[C@@H](O)C[C@]2(C)[C@@]1(O)C(=O)CSC(=O)c1ccc(F)cc1 [JO 1013, Dihydroxy-11β, 17α thiol-21 dioxo-3,20 fluoro-9α methyl-16α pregnadiene-1,4-21 p. fluoro benzoate]	0.5 mg/pellet	0.8 mg	–	0.625	–	–
C[C@]12C=CC(=O)C=C1CC[C@@H]1[C@@H]2[C@@H](O)C[C@@]2(C)[C@H]1CC[C@]2(O)C(=O)CSC(=O)c1ccc(F)cc1 [JO 1014, Thiol-21 dioxo-3,20 pregnadiene-1,4-21 p. fluorobenzoate]	0.5 mg/pellet	> 40 mg	40 mg	0.0125	0,012	–
C[C@]12CCC(=O)C=C1CC[C@@H]1[C@@H]2[C@@H](O)C[C@@]2(C)[C@H]1CC[C@]2(O)C(=O)CSC(=O)c1ccc(F)cc1 [JO 1026, Dihydroxy-11β, 17α thiol-21 dioxo-3,20 pregnene-4-21 p. fluoro-benzoate]	0.4 mg/pellet	> 40 mg	> 40 mg	< 0.01	< 0.01	–
CC(=O)OCC(=O)[C@@]1(O)CC[C@H]2[C@@H]3CCC4=CC(=O)C=C[C@]4(C)[C@H]3[C@@H](O)C[C@@]21C [Prednisolone (acetate), reference compound]	2 mg/pellet	–	–	–	–	ED50 thymolytic activity, oral route (thymus; [2]): 0.64 mg; ED50 thymolytic activity, sub-cutaneous route (thymus; [3]): 0.23 mg
C[C@]12C=CC(=O)C=C1CC[C@@H]1[C@@H]2[C@@H](O)C[C@@]2(C)[C@H]1CC[C@]2(O)C(=O)CO [Prednisolone (base), Prednisolone, reference compound]	4 mg/pellet	–	–	5	12.5	ED50 thymolytic activity, oral route (thymus; [2]): 0.34 mg; ED50 thymolytic activity, sub-cutaneous route (thymus; [3]): 0.84 mg
